{"source": "patent US20260256792A1", "about": "“TREATMENT OF CHRONIC SPONTANEOUS URTICARIA BY ADMINISTERING (R)-2-[3-[4-AMINO-3-(2-FLUORO-4-PHENOXY-PHENYL)PYRAZOLO[3,4-D]PYRIMIDIN-1-YL]PIPERIDINE-1-CARBONYL]-4-METHYL-4-[4-(OXETAN-3-YL)PIPERAZIN-1-YL]PENT-2-ENENITRILE” (priority 2023, published 2026)", "test_system": "angioedema in CSU patients", "experiment": "Phase 2 CSU study: angioedema activity score over 7 days (AAS7)", "format": "in vivo, human", "conditions": "400 mg TID; for AAS7 = 0, OR (95% CI) for rilzabrutinib vs. placebo / AAS7 = 0, RRD (%) for rilzabrutinib vs. placebo (95% CI) / AAS7 Post-baseline Mean (SD) / Participants with AAS7 = 0, Responder n (%) / AAS7 % Change difference for rilzabrutinib vs. placebo LS Mean (95% CI) / AAS7 Change difference for rilzabrutinib vs. placebo LS Mean (95% CI) / AAS7 Change from baseline LS Mean (SE) / AAS7 % Change from baseline LS Mean (SE) / AAS7 = 0, Non-responder n (%): angioedema at baseline; for Non-responder n (%), AAS7 = 0 / OR (95% CI) for rilzabrutinib vs. placebo, AAS7 = 0 / RRD (%) for rilzabrutinib vs. placebo (95% CI), AAS7 = 0 / Responder n (%), AAS7 = 0: outlier removed", "description": "The study comprises a 12 week, randomized, double-blind, placebo-controlled, multi-center, dose-ranging efficacy and safety phase, followed by a 40 week open label extension (OLE) phase (see FIG. 1). The study consists of three phases and an optional OLE phase. […] The weekly angioedema activity score (AAS7) was proposed as a tertiary endpoint. […] Patients were to complete the AAS using the e-diary. The e-diary was to be used once daily on the same time of each day recording of participant's answers to the angioedema activity score over 7 days (AAS7) questionnaire.", "data": [{"smiles": "CC(C)(C=C(C#N)C(=O)N1CCC[C@@H](n2nc(-c3ccc(Oc4ccccc4)cc3F)c3c(N)ncnc32)C1)N1CCN(C2COC2)CC1", "note": "[rilzabrutinib, (R)-2-[3-[4-amino-3-(2-fluoro-4-phenoxy-phenyl)pyrazolo[3,4-d]pyrimidin-1-yl]piperidine-1-carbonyl]-4-methyl-4-[4-(oxetan-3-yl)piperazin-1-yl]pent-2-enenitrile]", "values": [{"measurement": "AAS7 = 0, OR (95% CI) for rilzabrutinib vs. placebo", "setting": "Week 8, omalizumab-naïve", "value": 0.690}, {"measurement": "AAS7 = 0, RRD (%) for rilzabrutinib vs. placebo (95% CI)", "setting": "Week 8, omalizumab-naïve", "value": "−6.2", "unit": "%"}, {"measurement": "AAS7 Post-baseline Mean (SD)", "setting": "Week 8, omalizumab-naïve", "value": "12.20 (13.05)"}, {"measurement": "Participants with AAS7 = 0, Responder n (%)", "setting": "Week 8, omalizumab-naïve", "value": "6 (26.1) n (%)"}, {"measurement": "AAS7 % Change difference for rilzabrutinib vs. placebo LS Mean (95% CI)", "setting": "Week 9, ITT", "value": "−34.54 (−64.85, −4.23) %"}, {"measurement": "AAS7 Change difference for rilzabrutinib vs. placebo LS Mean (95% CI)", "setting": "Week 9, ITT", "value": "−13.12 (−23.93, −2.31)"}, {"measurement": "AAS7 Change from baseline LS Mean (SE)", "setting": "Week 9, ITT", "value": "−42.57 (4.09)"}, {"measurement": "AAS7 Post-baseline Mean (SD)", "setting": "Week 9, ITT", "value": "7.98 (11.59)"}, {"measurement": "Non-responder n (%), AAS7 = 0", "setting": "Week 9, omalizumab-naïve", "value": "15 (44.1) n (%)"}, {"measurement": "OR (95% CI) for rilzabrutinib vs. placebo, AAS7 = 0", "setting": "Week 9, omalizumab-naïve", "value": 1.155}, {"measurement": "RRD (%) for rilzabrutinib vs. placebo (95% CI), AAS7 = 0", "setting": "Week 9, omalizumab-naïve", "value": 3.6, "unit": "%"}, {"measurement": "Responder n (%), AAS7 = 0", "setting": "Week 9, omalizumab-naïve", "value": "19 (55.9) n (%)"}, {"measurement": "AAS7 % Change difference for rilzabrutinib vs. placebo LS Mean (95% CI)", "setting": "Week 9, omalizumab-naïve", "value": "−37.56 (−71.28, −3.83) %"}, {"measurement": "AAS7 % Change from baseline LS Mean (SE)", "setting": "Week 9, omalizumab-naïve", "value": "−84.73 (12.57) %"}, {"measurement": "AAS7 = 0, Non-responder n (%)", "setting": "Week 9, omalizumab-naïve", "value": "13 (56.5) n (%)"}, {"measurement": "AAS7 = 0, OR (95% CI) for rilzabrutinib vs. placebo", "setting": "Week 9, omalizumab-naïve", "value": 1.358}, {"measurement": "AAS7 = 0, RRD (%) for rilzabrutinib vs. placebo (95% CI)", "setting": "Week 9, omalizumab-naïve", "value": 6.9, "unit": "%"}, {"measurement": "AAS7 Post-baseline Mean (SD)", "setting": "Week 9, omalizumab-naïve", "value": "8.52 (12.19)"}, {"measurement": "Participants with AAS7 = 0, Responder n (%)", "setting": "Week 9, omalizumab-naïve", "value": "10 (43.5) n (%)"}, {"measurement": "AAS7 % Change difference for rilzabrutinib vs. placebo LS Mean (95% CI)", "setting": "Week 10, ITT", "value": "−38.35 (−79.56, 2.86) %"}, {"measurement": "AAS7 % Change from baseline LS Mean (SE)", "setting": "Week 10, ITT", "value": "−87.33 (15.54) %"}, {"measurement": "AAS7 Change difference for rilzabrutinib vs. placebo LS Mean (95% CI)", "setting": "Week 10, ITT", "value": "−13.07 (−24.96, −1.18)"}, {"measurement": "AAS7 Change from baseline LS Mean (SE)", "setting": "Week 10, ITT", "value": "−43.40 (4.49)"}, {"measurement": "AAS7 Post-baseline Mean (SD)", "setting": "Week 10, ITT", "value": "7.10 (9.58)"}, {"measurement": "Non-responder n (%), AAS7 = 0", "setting": "Week 10, omalizumab-naïve", "value": "16 (47.1) n (%)"}, {"measurement": "RRD (%) for rilzabrutinib vs. placebo (95% CI), AAS7 = 0", "setting": "Week 10, omalizumab-naïve", "value": 6.0, "unit": "%"}, {"measurement": "Responder n (%), AAS7 = 0", "setting": "Week 10, omalizumab-naïve", "value": "18 (52.9) n (%)"}, {"measurement": "AAS7 % Change from baseline LS Mean (SE)", "setting": "Week 10, omalizumab-naïve", "value": "−89.99 (16.85) %"}, {"measurement": "AAS7 = 0, Non-responder n (%)", "setting": "Week 10, omalizumab-naïve", "value": "13 (56.5) n (%)"}, {"measurement": "AAS7 = 0, OR (95% CI) for rilzabrutinib vs. placebo", "setting": "Week 10, omalizumab-naïve", "value": 1.627}, {"measurement": "AAS7 = 0, RRD (%) for rilzabrutinib vs. placebo (95% CI)", "setting": "Week 10, omalizumab-naïve", "value": 11.0, "unit": "%"}, {"measurement": "AAS7 Post-baseline Mean (SD)", "setting": "Week 10, omalizumab-naïve", "value": "6.83 (9.73)"}, {"measurement": "Participants with AAS7 = 0, Responder n (%)", "setting": "Week 10, omalizumab-naïve", "value": "10 (43.5) n (%)"}, {"measurement": "AAS7 % Change difference for rilzabrutinib vs. placebo LS Mean (95% CI)", "setting": "Week 11, ITT", "value": "−15.53 (−43.68, 12.62) %"}, {"measurement": "AAS7 Change difference for rilzabrutinib vs. placebo LS Mean (95% CI)", "setting": "Week 11, ITT", "value": "−6.88 (−18.42, 4.67)"}, {"measurement": "AAS7 Change from baseline LS Mean (SE)", "setting": "Week 11, ITT", "value": "−40.74 (4.34)"}, {"measurement": "AAS7 Post-baseline Mean (SD)", "setting": "Week 11, ITT", "value": "9.40 (13.36)"}, {"measurement": "Non-responder n (%), AAS7 = 0", "setting": "Week 11, omalizumab-naïve", "value": "15 (44.1) n (%)"}, {"measurement": "OR (95% CI) for rilzabrutinib vs. placebo, AAS7 = 0", "setting": "Week 11, omalizumab-naïve", "value": 1.142}, {"measurement": "RRD (%) for rilzabrutinib vs. placebo (95% CI), AAS7 = 0", "setting": "Week 11, omalizumab-naïve", "value": 3.1, "unit": "%"}, {"measurement": "Responder n (%), AAS7 = 0", "setting": "Week 11, omalizumab-naïve", "value": "19 (55.9) n (%)"}, {"measurement": "AAS7 = 0, Non-responder n (%)", "setting": "Week 11, omalizumab-naïve", "value": "13 (56.5) n (%)"}, {"measurement": "AAS7 = 0, OR (95% CI) for rilzabrutinib vs. placebo", "setting": "Week 11, omalizumab-naïve", "value": 1.160}, {"measurement": "AAS7 = 0, RRD (%) for rilzabrutinib vs. placebo (95% CI)", "setting": "Week 11, omalizumab-naïve", "value": 3.1, "unit": "%"}, {"measurement": "AAS7 Post-baseline Mean (SD)", "setting": "Week 11, omalizumab-naïve", "value": "9.80 (13.81)"}, {"measurement": "Participants with AAS7 = 0, Responder n (%)", "setting": "Week 11, omalizumab-naïve", "value": "10 (43.5) n (%)"}, {"measurement": "AAS7 % Change difference for rilzabrutinib vs. placebo LS Mean (95% CI)", "setting": "Week 12, ITT", "value": "−19.84 (−46.44, 6.76) %"}, {"measurement": "AAS7 % Change from baseline LS Mean (SE)", "setting": "Week 12, ITT", "value": "−82.82 (10.03) %"}, {"measurement": "AAS7 Change difference for rilzabrutinib vs. placebo LS Mean (95% CI)", "setting": "Week 12, ITT", "value": "−8.06 (−19.05, 2.94)"}, {"measurement": "AAS7 Change from baseline LS Mean (SE)", "setting": "Week 12, ITT", "value": "−43.36 (4.14)"}, {"measurement": "AAS7 Post-baseline Mean (SD)", "setting": "Week 12, ITT", "value": "7.37 (12.64)"}, {"measurement": "patients with angioedema score (AAS7) of 0", "setting": "Week 12, omalizumab-naïve", "value": 60.9, "unit": "%"}, {"measurement": "Non-responder n (%), AAS7 = 0", "setting": "Week 12, omalizumab-naïve", "value": "12 (35.3) n (%)"}, {"measurement": "OR (95% CI) for rilzabrutinib vs. placebo, AAS7 = 0", "setting": "Week 12, omalizumab-naïve", "value": 1.685}, {"measurement": "RRD (%) for rilzabrutinib vs. placebo (95% CI), AAS7 = 0", "setting": "Week 12, omalizumab-naïve", "value": 13.0, "unit": "%"}, {"measurement": "Responder n (%), AAS7 = 0", "setting": "Week 12, omalizumab-naïve", "value": "22 (64.7) n (%)"}, {"measurement": "AAS7 = 0, Non-responder n (%)", "setting": "Week 12, omalizumab-naïve", "value": "9 (39.1) n (%)"}, {"measurement": "AAS7 = 0, OR (95% CI) for rilzabrutinib vs. placebo", "setting": "Week 12, omalizumab-naïve", "value": 3.085}, {"measurement": "AAS7 = 0, RRD (%) for rilzabrutinib vs. placebo (95% CI)", "setting": "Week 12, omalizumab-naïve", "value": 29.7, "unit": "%"}]}]}
